Here are results for one compound from patent US20040192772A1, “Agent for treating the symptoms of dementia disorders and/or depression” (priority 2001, published 2004).

This experiment relates to patients suffering from dementia disorders and depression. Briefly: therapy of patients suffering from dementia disorders and depression. The following applies: compared with the other local anaesthetics of the anilide group (lidocaine, bupivacaine, butanilicaine, etidocaine, tholycaine, ropivacaine). Format: in vivo, human.

As for `Cc1cccc(C)c1NC(=O)C1CCCCN1C` (stereo not shown) [Mepivacaine, mepivacaine], the “effectiveness for the therapy of patients suffering from dementia disorders and depression” value is “most effective”.
